The test system of experiment [1] is RCC4. Briefly: XTT IC50 / viability assay, RCC4 cells. It is filed as cell-based, human. As to conditions: Homo sapiens, RCC4, 96 h; XTT assay, four days. As to the method: (§1) RCC4 parental and RCC4 with VHL-reintroduced (RCC4/VHL), SN12C and SN12C-CSCG-VHL shRNA were maintained in DMEM supplemented with 10% FCS.
(§2) IC50 values for compounds were determined by XTT assay. For 2,3-bis[2-methoxy-4-nitro-5-sulfophenyl]-2H-tetrazolium-5-carboxanilide inner salt (XTT) assays, five thousand cells were plated in 96-well plates. The next day, vehicle or drug was added to each well and incubated for four days. Media was aspirated and phenol red-free medium with 0.3 mg/mL XTT and 2.65 ug/mL N-methyl dibenzopyrazine methyl sulfate was added. This was incubated at 37° C. for 1-2 hours and absorbance was read at 450 nm. IC50 values for each compound were calculated using linear interpolation.
(§3) For 2,3-bis[2-methoxy-4-nitro-5-sulfophenyl]-2H-tetrazolium-5-carboxanilide (XTT) assays, five thousand cells were plated in 96-well plates. The next day, vehicle (DMSO) or drug was added by serial dilution. Four days later, media were aspirated, XTT solution (0.3 mg/ml of XTT (Sigma), 2.65 mg/ml N-methyl dibenxopyrazine methyl sulfate (Simga) in phenol red-free media) was added, and the plates were incubated at 37° C. for 1-2 hours. Metabolism of XTT was quantified by measuring the absorbance at 450 nm. IC50s were calculated using linear interpolation. For clonogenic survival assays, three hundred cells were plated per 60 mm tissue culture dish. The cells were allowed to attach overnight and then treated with vehicle or drug for 14 days. Colonies were fixed and stained with crystal violet (0.1% crystal violet in 95% ethanol). All conditions were measured in triplicate and each experiment was done in duplicate or triplicate. To determine necrosis, cells were treated with drug for a given time point. Media and cells were collected, centrifugated, and resuspended in 0.4% trypan blue (Invitrogen). Live and dead cells were counted on a hematocytometer.
For orientation: Formazan colour is commonly taken as a measure of viable cells.

The subject of experiment [2] is RCC4/VHL. Briefly: XTT IC50 assay, selectivity RCC4 versus RCC4 with VHL-reintroduced. Type of experiment: cell-based, human. The note with it: selectivity ratio of XTT IC50 values, RCC4 vs RCC4/VHL. On the procedure: as §1, §2, §3

In general, IC50 refers to the concentration that gives 50% inhibition. A lower IC50 goes with higher potency. Molecule `Cc1ccc(S(=O)(=O)NCc2ccc(C(=O)Nc3cccnc3)cc2)c(C)c1` [Example 64, 4-((2,4-Dimethylphenylsulfonamido)methyl)-N-(pyridin-3-yl)benzamide] displayed an IC50 in experiment [1] of 1000 to 20000 nM. In experiment [2], the “Ratio (RCC4:RCC/VHL)” value is “a (“a” reflects a ratio of RCC4/RCC-VHL+ ranging from 1 to 10)”.
The matching figures for `Cc1ccc(S(=O)(=O)NCc2ccc(C(=O)Nc3cccnc3)cc2)cc1C` [Example 65, 4-((3,4-Dimethylphenylsulfonamido)methyl)-N-(pyridin-3-yl)benzamide]: less than 1000 nM and “c (“c” reflects a ratio of >100)”.
In turn, `Cc1cc(C)cc(S(=O)(=O)NCc2ccc(C(=O)Nc3cccnc3)cc2)c1` [Example 66, 4-((3,5-Dimethylphenylsulfonamido)methyl)-N-(pyridin-3-yl)benzamide] gave an IC50 in experiment [1] of less than 1000 nM. For the same molecule, in experiment [2], the “Ratio (RCC4:RCC/VHL)” value was “c (“c” reflects a ratio of >100)”.
Molecule `Cc1ccc(S(=O)(=O)NCc2ccc(C(=O)Nc3cccnc3)cc2)cc1F` [Example 67, 4-((3-Fluoro-4-methylphenylsulfonamido)methyl)-N-(pyridin-3-yl)benzamide] yielded a concentration for half-maximal inhibition (IC50) in experiment [1] of less than 1000 nM. Besides, the “Ratio (RCC4:RCC/VHL)” value in experiment [2] is on record as “c (“c” reflects a ratio of >100)”.
For `Cc1ccc(S(=O)(=O)NCc2ccc(C(=O)Nc3cccnc3)cc2)cc1Cl` [Example 69, 4-((3-Chloro-4-methylphenylsulfonamido)methyl)-N-(pyridin-3-yl)benzamide], in that order: less than 1000 nM and “b (“b” reflects from 10 to 100)”.
Molecule `O=C(Nc1cccnc1)c1ccc(CNS(=O)(=O)c2ccc(Cl)c(Cl)c2)cc1` [Example 70, 4-((3,4-Dichlorophenylsulfonamido)methyl)-N-(pyridin-3-yl)benzamide] gave a half-inhibitory concentration (IC50) in experiment [1] of 1000 to 20000 nM. For the same molecule, in experiment [2], the “Ratio (RCC4:RCC/VHL)” value was “b (“b” reflects from 10 to 100)”.
The matching figures for `O=C(Nc1cccnc1)c1ccc(CNS(=O)(=O)c2ccc3ccccc3c2)cc1` [Example 72, 4-((Naphthalene-2-sulfonamido)methyl)-N-(pyridin-3-yl)benzamide]: 1000 to 20000 nM and “b (“b” reflects from 10 to 100)”.
`CN(C)c1cccc2c(S(=O)(=O)NCc3ccc(C(=O)Nc4cccnc4)cc3)cccc12` [Example 73, 4-((5-(Dimethylamino)naphthalene-1-sulfonamido)methyl)-N-(pyridin-3-yl)benzamide]: the IC50 in experiment [1] was less than 1000 nM. Also, the “Ratio (RCC4:RCC/VHL)” value in experiment [2] is recorded as “c (“c” reflects a ratio of >100)”.
The molecule `O=C(Nc1cccnc1)c1ccc(CNS(=O)(=O)c2ccc3c(c2)CCC3)cc1` [Example 74, 4-((2,3-Dihydro-1H-indene-5-sulfonamido)methyl)-N-(pyridin-3-yl)benzamide] returned a 50% inhibitory concentration (IC50) in experiment [1] of less than 1000 nM. Moreover, the “Ratio (RCC4:RCC/VHL)” value in experiment [2] was “c (“c” reflects a ratio of >100)”.
`CN(C)C1Cc2ccc(S(=O)(=O)NCc3ccc(C(=O)Nc4cccnc4)cc3)cc2C1` (stereo not shown) [Example 75, 4-((2-(Dimethylamino)-2,3-dihydro-1H-indene-5-sulfonamido)methyl)-N-(pyridin-3-yl)benzamide] came in with an IC50 in experiment [1] of less than 1000 nM. In addition, the “Ratio (RCC4:RCC/VHL)” value in experiment [2] was “c (“c” reflects a ratio of >100)”.
As to `CN(C)Cc1ccc(S(=O)(=O)NCc2ccc(C(=O)Nc3cccnc3)cc2)cc1` [Example 77, 4-[({4-[(Dimethylamino)methyl]phenyl}sulfonyl)amino]methyl-N-(3-pyridinyl)benzamide], the IC50 in experiment [1] was less than 1000 nM. The “Ratio (RCC4:RCC/VHL)” value in experiment [2] was “b (“b” reflects from 10 to 100)”.
The matching figures for `CCN(CC)Cc1ccc(S(=O)(=O)NCc2ccc(C(=O)Nc3cccnc3)cc2)cc1` [Example 78, 4-{[({4-[(Diethylamino)methyl]phenyl}sulfonyl)amino]methyl}-N-(3-pyridinyl)benzamide]: less than 1000 nM and “c (“c” reflects a ratio of >100)”.
For `CCCN(CCC)Cc1ccc(S(=O)(=O)NCc2ccc(C(=O)Nc3cccnc3)cc2)cc1` [Example 79, 4-{[({4-[(Dipropylamino)methyl]phenyl}sulfonyl)amino]methyl}-N-(3-pyridinyl)benzamide], in that order: less than 1000 nM and “b (“b” reflects from 10 to 100)”.
The molecule `O=C(Nc1cccnc1)c1ccc(CNS(=O)(=O)c2ccc(CN3CCCC3)cc2)cc1` [Example 80, 4-[({[4-(1-Pyrrolidinylmethyl)phenyl]sulfonyl}amino)methyl]-N-(3-pyridinyl)-benzamide] registered an IC50 in experiment [1] of less than 1000 nM. In experiment [2], the “Ratio (RCC4:RCC/VHL)” value is reported as “c (“c” reflects a ratio of >100)”.
For `O=C(Nc1cccnc1)c1ccc(CNS(=O)(=O)c2ccc(CN3CCCCC3)cc2)cc1` [Example 81, 4-[({[4-(1-Piperidinylmethyl)phenyl]sulfonyl}amino)methyl]-N-(3-pyridinyl)benzamide], the IC50 in experiment [1] was less than 1000 nM. Further, in experiment [2], the “Ratio (RCC4:RCC/VHL)” value is listed as “b (“b” reflects from 10 to 100)”.
`O=C(Nc1cccnc1)c1ccc(CNS(=O)(=O)c2ccc(CN3CCCCCC3)cc2)cc1` [Example 82, 4-[({[4-(1-Azepanylmethyl)phenyl]sulfonyl}amino)methyl]-N-(3-pyridinyl)benzamide]: in experiment [1], the half-maximal inhibitory concentration (IC50) was less than 1000 nM. Also, in experiment [2], the “Ratio (RCC4:RCC/VHL)” value is “c (“c” reflects a ratio of >100)”.
In experiment [1], `O=C(Nc1cccnc1)c1ccc(CNS(=O)(=O)c2ccc(CN3CCOCC3)cc2)cc1` [Example 83, 4-[({[4-(4-Morpholinylmethyl)phenyl]sulfonyl}amino)methyl]-N-(3-pyridinyl)benzamide] had an IC50 of less than 1000 nM. The “Ratio (RCC4:RCC/VHL)” value in experiment [2] is “c (“c” reflects a ratio of >100)”.
The matching figures for `COC1CCN(Cc2ccc(S(=O)(=O)NCc3ccc(C(=O)Nc4cccnc4)cc3)cc2)CC1` [Example 84, 4-{[({4-[(4-Methoxy-1-piperidinyl)methyl]phenyl}sulfonyl)amino]methyl}-N-(3-pyridinyl)benzamide]: less than 1000 nM and “c (“c” reflects a ratio of >100)”.
In experiment [1], `CN1CCN(Cc2ccc(S(=O)(=O)NCc3ccc(C(=O)Nc4cccnc4)cc3)cc2)CC1` [Example 85, 4-{[({4-[(4-Methyl-1-piperazinyl)methyl]phenyl}sulfonyl)amino]methyl}-N-(3-pyridinyl)benzamide] came in with a half-maximal inhibitory concentration (IC50) of less than 1000 nM. For the same molecule, the “Ratio (RCC4:RCC/VHL)” value in experiment [2] was “c (“c” reflects a ratio of >100)”.
For the molecule `CN(C(=O)c1ccc(CNS(=O)(=O)c2ccc(C(C)(C)C)cc2)cc1)c1cccnc1` [Example 89, 4-[(4-tert-Butylphenylsulfonamido)methyl]-N-methyl-N-(3-pyridinyl)benzamide], in experiment [1], the IC50 was in the range of 1000 to 20000 nM. In experiment [2], the “Ratio (RCC4:RCC/VHL)” value is listed as “a (“a” reflects a ratio of RCC4/RCC-VHL+ ranging from 1 to 10)”.
In the case of `CN(C(=O)c1ccc(CNS(=O)(=O)c2ccccc2)cc1)c1cccnc1` [Example 90, N-Methyl-4-{[(phenylsulfonyl)amino]methyl}-N-(3-pyridinyl)benzamide], in experiment [1], the 50% inhibitory concentration (IC50) lay in the range of 1000 to 20000 nM. Also, in experiment [2], the “Ratio (RCC4:RCC/VHL)” value is “a (“a” reflects a ratio of RCC4/RCC-VHL+ ranging from 1 to 10)”.
Consider `O=C(Nc1cccnc1)c1ccc(CNS(=O)(=O)c2ccc(I)cc2)cc1` [Example 94, 4-((4-Iodophenylsulfonamido)methyl)-N-(pyridin-3-yl)benzamide], for which the IC50 in experiment [1] was in the range of 1000 to 20000 nM. Moreover, the “Ratio (RCC4:RCC/VHL)” value in experiment [2] is reported as “a (“a” reflects a ratio of RCC4/RCC-VHL+ ranging from 1 to 10)”.
For `C#Cc1ccc(S(=O)(=O)NCc2ccc(C(=O)Nc3cccnc3)cc2)cc1` [Example 95, 4-((4-Ethynylphenylsulfonamido)methyl)-N-(pyridin-3-yl)benzamide], in that order: 1000 to 20000 nM and “b (“b” reflects from 10 to 100)”.
Consider `COCC#Cc1ccc(S(=O)(=O)NCc2ccc(C(=O)Nc3cccnc3)cc2)cc1` [Example 98, 4-{[({4-[3-(Methyloxy)-1-propynyl]phenyl}sulfonyl)amino]methyl}-N-(3-pyridinyl)benzamide], for which the concentration for half-maximal inhibition (IC50) in experiment [1] is 1000 to 20000 nM. In addition, the “Ratio (RCC4:RCC/VHL)” value in experiment [2] is “a (“a” reflects a ratio of RCC4/RCC-VHL+ ranging from 1 to 10)”.
Take `O=C(Nc1cccnc1)c1ccc(CNS(=O)(=O)c2ccc(-c3cn(Cc4ccccc4)nn3)cc2)cc1` [Example 102, 4-[({[4-(1-benzyl-1H-1,2,3-triazol-4-yl)phenyl]sulfonyl}amino)methyl]-N-(3-pyridinyl)benzamide]: in experiment [1], the IC50 is greater than 20000 nM. Further, the “Ratio (RCC4:RCC/VHL)” value in experiment [2] is listed as “a (“a” reflects a ratio of RCC4/RCC-VHL+ ranging from 1 to 10)”.
In turn, `O=C(Nc1cccnc1)c1ccc(CNS(=O)(=O)c2ccc(CCCO)cc2)cc1` [Example 104, 4-[({[4-(3-Hydroxypropyl)phenyl]sulfonyl}amino)methyl]-N-(3-pyridinyl)benzamide] came in with a 50% inhibitory concentration (IC50) in experiment [1] of less than 1000 nM. Besides, the “Ratio (RCC4:RCC/VHL)” value in experiment [2] is “c (“c” reflects a ratio of >100)”.

For the origin of these results see patent publication US20120225862A1, “HETEROARYL BENZAMIDES, COMPOSITIONS AND METHODS OF USE” (AUCKLAND UNIVSERVICES LIMITED, priority 2009, published 2012).
